Experimental data from US20230085307A1, “PYRIDAZINONE COMPOUND AND HERBICIDE” (NISSAN CHEMICAL CORPORATION, priority 2019, published 2023).

Experiments:
[1] = tested on: barnyard grass; assay: Test Example 3: herbicidal effect by foliage application, Wagner pot (Table 18, symbol H); assay type: in vivo, barnyard grass (Echinochloa crus-galli); details: amount of applied herbicide 320 g/ha
Summary of the method: (§1)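 Plants were sown in alluvial soil held under 0.1–0.5 cm standing water and grown 14 days in a greenhouse at 25–30 °C. An emulsifiable formulation, water-diluted to the set dose, was then sprayed onto the foliage, and effects were scored three weeks later using previously defined criteria.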

[2] = tested on: windgrass; assay: Test Example 5: herbicidal effect by foliage application, plastic box (Table 20, symbol L); assay type: in vivo, windgrass (Apera spica-venti); details: foliage application
Summary of the method: (§2)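 Foliar spray test: emulsion formulation diluted in water to a set application rate, sprayed onto 14-day-old plants raised in diluvial soil at 25° C to 30° C under glass. Both herbicidal effect and crop effect rated visually three weeks later.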

[3] = tested on: southern crabgrass; assay: Test Example 4: herbicidal effect by soil treatment (Table 19, symbol F); assay type: in vivo, southern crabgrass (Digitaria ciliaris); details: amount of applied herbicide 320 g/ha
Summary of the method: (§3)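 Herbicidal effect was rated 3 weeks after treatment, using the scoring criteria of an earlier test. The compound, formulated as an emulsion and diluted in water to a set herbicide amount, had been sprayed uniformly on soil over freshly sown seeds. Growth took place in a greenhouse at 25° C. to 30° C.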

[4] = tested on: windgrass; assay: Test Example 4: herbicidal effect by soil treatment (Table 19, symbol L); assay type: in vivo, windgrass (Apera spica-venti); details: amount of applied herbicide 320 g/ha
Summary of the method: as §3

[5] = tested on: Italian ryegrass; assay: Test Example 5: herbicidal effect by foliage application, plastic box (Table 20, symbol K); assay type: in vivo, Italian ryegrass (Lolium multiflorum); details: foliage application
Summary of the method: as §2

[6] = tested on: Chinese sprangletop; assay: Test Example 3: herbicidal effect by foliage application, Wagner pot (Table 18, symbol D); assay type: in vivo, chinese sprangletop (Leptochloa chinensis); details: amount of applied herbicide 320 g/ha
Summary of the method: as §1

[7] = tested on: lambsquarters; assay: Test Example 4: herbicidal effect by soil treatment (Table 19, symbol O); assay type: in vivo, lambsquarters (Chenopodium album); details: amount of applied herbicide 320 g/ha
Summary of the method: as §3

[8] = tested on: velvetleaf; assay: Test Example 5: herbicidal effect by foliage application, plastic box (Table 20, symbol M); assay type: in vivo, velvetleaf (Abutilon theophrasti); details: foliage application
Summary of the method: as §2

[9] = tested on: Italian ryegrass; assay: Test Example 4: herbicidal effect by soil treatment (Table 19, symbol K); assay type: in vivo, Italian ryegrass (Lolium multiflorum); details: amount of applied herbicide 320 g/ha
Summary of the method: as §3

[10] = tested on: blackgrass; assay: Test Example 5: herbicidal effect by foliage application, plastic box (Table 20, symbol J); assay type: in vivo, blackgrass (Alopecurus myosuroides); details: foliage application
Summary of the method: as §2

[11] = tested on: barnyard grass; assay: Test Example 5: herbicidal effect by foliage application, plastic box (Table 20, symbol H); assay type: in vivo, barnyard grass (Echinochloa crus-galli); details: foliage application
Summary of the method: as §2

[12] = tested on: chickweed; assay: Test Example 5: herbicidal effect by foliage application, plastic box (Table 20, symbol P); assay type: in vivo, common chickweed (Stellaria media); details: foliage application, AAH 320 g/ha, evaluated three weeks after application
Summary of the method: as §2

[13] = tested on: redroot pigweed; assay: Test Example 4: herbicidal effect by soil treatment (Table 19, symbol N); assay type: in vivo, redroot pigweed (Amaranthus retroflexus); details: amount of applied herbicide 320 g/ha
Summary of the method: as §3

[14] = tested on: Japanese bulrush; assay: Test Example 1: herbicidal activity, application before weed generation under submerged conditions (Table 16, symbol B); assay type: in vivo, Japanese bulrush (Schoenoplectus juncoides)
Summary of the method: (§4)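 Emulsion formulation, water-diluted to set dose, was put onto the flooded surface (4 cm depth, alluvial soil) the same day weeds were sown and 2.5-leaf rice transplanted. After 3 weeks at 25-30 °C under glass, each species was rated 0 (≤5% kill) to 5 (≥90% kill).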

[15] = tested on: persian speedwell; assay: Test Example 5: herbicidal effect by foliage application, plastic box (Table 20, symbol R); assay type: in vivo, Persian speedwell (Veronica persica); details: foliage application
Summary of the method: as §2

[16] = tested on: barnyard grass; assay: Test Example 4: herbicidal effect by soil treatment (Table 19, symbol H); assay type: in vivo, barnyard grass (Echinochloa crus-galli); details: amount of applied herbicide 320 g/ha
Summary of the method: as §3

[17] = tested on: wild oat; assay: Test Example 4: herbicidal effect by soil treatment (Table 19, symbol I); assay type: in vivo, wild oat (Avena fatua); details: amount of applied herbicide 320 g/ha
Summary of the method: as §3

[18] = tested on: rice flat sedge; assay: Test Example 3: herbicidal effect by foliage application, Wagner pot (Table 18, symbol E); assay type: in vivo, rice flat sedge (Cyperus iria); details: amount of applied herbicide 320 g/ha
Summary of the method: as §1

[19] = tested on: wild oat; assay: Test Example 5: herbicidal effect by foliage application, plastic box (Table 20, symbol I); assay type: in vivo, wild oat (Avena fatua); details: foliage application
Summary of the method: as §2

[20] = tested on: green foxtail; assay: Test Example 4: herbicidal effect by soil treatment (Table 19, symbol G); assay type: in vivo, green foxtail (Setaria viridis); details: amount of applied herbicide 320 g/ha
Summary of the method: as §3

[21] = tested on: lambsquarters; assay: Test Example 5: herbicidal effect by foliage application, plastic box (Table 20, symbol O); assay type: in vivo, lambsquarters (Chenopodium album); details: foliage application
Summary of the method: as §2

[22] = tested on: oval-leafed pondweed; assay: Test Example 1: herbicidal activity, application before weed generation under submerged conditions (Table 16, symbol C); assay type: in vivo, oval-leafed pondweed (Monochoria vaginalis)
Summary of the method: as §4

[23] = tested on: southern crabgrass; assay: Test Example 5: herbicidal effect by foliage application, plastic box (Table 20, symbol F); assay type: in vivo, southern crabgrass (Digitaria ciliaris); details: foliage application
Summary of the method: as §2

[24] = tested on: velvetleaf; assay: Test Example 4: herbicidal effect by soil treatment (Table 19, symbol M); assay type: in vivo, velvetleaf (Abutilon theophrasti); details: amount of applied herbicide 320 g/ha
Summary of the method: as §3

[25] = tested on: redroot pigweed; assay: Test Example 5: herbicidal effect by foliage application, plastic box (Table 20, symbol N); assay type: in vivo, redroot pigweed (Amaranthus retroflexus); details: foliage application, AAH 320 g/ha, evaluated three weeks after application
Summary of the method: as §2

[26] = tested on: false cleavers; assay: Test Example 4: herbicidal effect by soil treatment (Table 19, symbol Q); assay type: in vivo, false cleavers (Galium spurium); details: amount of applied herbicide 320 g/ha
Summary of the method: as §3

[27] = tested on: late watergrass; assay: Test Example 1: herbicidal activity, application before weed generation under submerged conditions (Table 16, symbol A); assay type: in vivo, late watergrass (Echinochloa oryzicola)
Summary of the method: as §4

[28] = tested on: green foxtail; assay: Test Example 5: herbicidal effect by foliage application, plastic box (Table 20, symbol G); assay type: in vivo, green foxtail (Setaria viridis); details: foliage application
Summary of the method: as §2

[29] = tested on: blackgrass; assay: Test Example 4: herbicidal effect by soil treatment (Table 19, symbol J); assay type: in vivo, blackgrass (Alopecurus myosuroides); details: amount of applied herbicide 320 g/ha
Summary of the method: as §3

[30] = AAH 320 g/ha, evaluated three weeks after application
[31] = 320 g/ha, three weeks after application
[32] = amount of applied herbicide 320 g/ha

Cc1nn(C)c(=O)c(-c2c(-c3ccc(COCC(F)(F)F)cc3)sc3ccc(F)cc23)c1O [2-315]
herbicidal effect on H: barnyard grass [1]: 5 (Herbicidal rate of 90% or more (almost completely withered))
L: windgrass, herbicidal effect (criteria 0-5) [2, 30]: 5 (Herbicidal rate of 90% or more (almost completely withered))
herbicidal effect on F: southern crabgrass [3]: 2 (Herbicidal rate of 20% or more and less than 40%)
herbicidal effect on L: windgrass [4]: 0 (Herbicidal rate of 5% or less (almost no effect))
K: Italian ryegrass, herbicidal effect (criteria 0-5) [5, 30]: 5 (Herbicidal rate of 90% or more (almost completely withered))
herbicidal effect on D: Chinese sprangletop [6]: 3 (Herbicidal rate of 40% or more and less than 70%)
herbicidal effect on O: lambsquarters [7]: 5 (Herbicidal rate of 90% or more (almost completely withered))
M: velvetleaf, herbicidal effect (criteria 0-5) [8, 30]: 5 (Herbicidal rate of 90% or more (almost completely withered))
herbicidal effect on K: Italian ryegrass [9]: 4 (Herbicidal rate of 70% or more and less than 90%)
J: blackgrass, herbicidal effect (criteria 0-5) [10, 30]: 5 (Herbicidal rate of 90% or more (almost completely withered))
H: barnyard grass, herbicidal effect (criteria 0-5) [11, 30]: 5 (Herbicidal rate of 90% or more (almost completely withered))
P: chickweed, herbicidal effect (criteria 0-5) [12]: 5 (Herbicidal rate of 90% or more (almost completely withered))
herbicidal effect on N: redroot pigweed [13]: 5 (Herbicidal rate of 90% or more (almost completely withered))
Herbicidal effect on B: Japanese bulrush (grade 0-5) ([14]; 320 g/ha applied herbicide): 0 (Herbicidal rate of 5% or less (almost no effect))
R: persian speedwell, herbicidal effect (criteria 0-5) [15, 30]: 5 (Herbicidal rate of 90% or more (almost completely withered))
herbicidal effect on H: barnyard grass [16]: 3 (Herbicidal rate of 40% or more and less than 70%)
herbicidal effect on I: wild oat [17]: 0 (Herbicidal rate of 5% or less (almost no effect))
herbicidal effect on E: rice flat sedge [18]: 5 (Herbicidal rate of 90% or more (almost completely withered))
I: wild oat, herbicidal effect (criteria 0-5) [19, 30]: 0 (Herbicidal rate of 5% or less (almost no effect))
herbicidal effect on G: green foxtail [20]: 3 (Herbicidal rate of 40% or more and less than 70%)
O: lambsquarters, herbicidal effect (criteria 0-5) [21, 30]: 5 (Herbicidal rate of 90% or more (almost completely withered))
Herbicidal effect on C: oval-leafed pondweed (grade 0-5) ([22]; 320 g/ha applied herbicide): 0 (Herbicidal rate of 5% or less (almost no effect))
F: southern crabgrass, herbicidal effect (criteria 0-5) [23, 30]: 4 (Herbicidal rate of 70% or more and less than 90%)
herbicidal effect on M: velvetleaf [24]: 4 (Herbicidal rate of 70% or more and less than 90%)
N: redroot pigweed, herbicidal effect (criteria 0-5) [25]: 5 (Herbicidal rate of 90% or more (almost completely withered))
herbicidal effect on Q: false cleavers [26]: 5 (Herbicidal rate of 90% or more (almost completely withered))
Herbicidal effect on A: late watergrass (grade 0-5) ([27]; 320 g/ha applied herbicide): 4 (Herbicidal rate of 70% or more and less than 90%)
G: green foxtail, herbicidal effect (criteria 0-5) [28, 30]: 5 (Herbicidal rate of 90% or more (almost completely withered))

COCc1ccc(-c2oc3ccc(F)cc3c2-c2c(O)c(C)nn(C)c2=O)cc1 [9-043]
Herbicidal effect on H (barnyard grass), foliage application [1]: 4 (Herbicidal rate of 70% or more and less than 90%)
herbicidal effect on windgrass (L) [2, 31]: 0 (Herbicidal rate of 5% or less (almost no effect))
F: southern crabgrass, herbicidal effect grade [3]: 4 (Herbicidal rate of 70% or more and less than 90%)
J: blackgrass, herbicidal effect grade [29]: 4 (Herbicidal rate of 70% or more and less than 90%)
L: windgrass, herbicidal effect grade [4]: 0 (Herbicidal rate of 5% or less (almost no effect))
herbicidal effect on Italian ryegrass (K) [5, 31]: 5 (Herbicidal rate of 90% or more (almost completely withered))
Herbicidal effect on D (Chinese sprangletop), foliage application [6]: 3 (Herbicidal rate of 40% or more and less than 70%)
O: lambsquarters, herbicidal effect grade [7]: 3 (Herbicidal rate of 40% or more and less than 70%)
herbicidal effect on velvetleaf (M) [8, 31]: 4 (Herbicidal rate of 70% or more and less than 90%)
K: Italian ryegrass, herbicidal effect grade [9]: 5 (Herbicidal rate of 90% or more (almost completely withered))
herbicidal effect on blackgrass (J) [10, 31]: 4 (Herbicidal rate of 70% or more and less than 90%)
herbicidal effect on barnyard grass (H) [11, 31]: 3 (Herbicidal rate of 40% or more and less than 70%)
N: redroot pigweed, herbicidal effect grade [13]: 5 (Herbicidal rate of 90% or more (almost completely withered))
Herbicidal effect, B: Japanese bulrush [14, 32]: 0 (Herbicidal rate of 5% or less (almost no effect))
herbicidal effect on persian speedwell (R) [15, 31]: 5 (Herbicidal rate of 90% or more (almost completely withered))
H: barnyard grass, herbicidal effect grade [16]: 4 (Herbicidal rate of 70% or more and less than 90%)
I: wild oat, herbicidal effect grade [17]: 0 (Herbicidal rate of 5% or less (almost no effect))
Herbicidal effect on E (rice flat sedge), foliage application [18]: 5 (Herbicidal rate of 90% or more (almost completely withered))
herbicidal effect on wild oat (I) [19, 31]: 0 (Herbicidal rate of 5% or less (almost no effect))
G: green foxtail, herbicidal effect grade [20]: 5 (Herbicidal rate of 90% or more (almost completely withered))
herbicidal effect on lambsquarters (O) [21, 31]: 4 (Herbicidal rate of 70% or more and less than 90%)
Herbicidal effect, C: oval-leafed pondweed [22, 32]: 2 (Herbicidal rate of 20% or more and less than 40%)
herbicidal effect on southern crabgrass (F) [23, 31]: 3 (Herbicidal rate of 40% or more and less than 70%)
M: velvetleaf, herbicidal effect grade [24]: 4 (Herbicidal rate of 70% or more and less than 90%)
Q: false cleavers, herbicidal effect grade [26]: 0 (Herbicidal rate of 5% or less (almost no effect))
Herbicidal effect, A: late watergrass [27, 32]: 3 (Herbicidal rate of 40% or more and less than 70%)
herbicidal effect on green foxtail (G) [28, 31]: 4 (Herbicidal rate of 70% or more and less than 90%)
